Data on five molecules can be found in patent publication US11617369B2, “Antimicrobial gallium compounds and methods” (The Board of Supervisors of Louisiana State University and …, priority 2018, dated 2023).

Entries after “also recorded” stand apart in the source; their conditions may differ.

The conditions of data set [1]: cited from earlier work.
The subject of another data set is Actinomyces naeslundii. As to the kind of experiment: Antibacterial activity by optical density of cultures with serial dilution of the compounds. Format: cell-based. The settings on record: pH 5.9, 18 hours. As for the experimental part: (§1) The antibacterial activities of three complexes against six oral bacteria at pH 5.9 were tested by measuring the optical density (OD, at 600 nm) of the cultures in […] of different bacteria with the presence of serial dilution of the compounds (10^−2M-7.81×10^−5M) after culture at 5% CO2 under 37° C. for 18 hours. The midpoint concentration (IC 50) was determined at the concentration that corresponds to 50% of maximum OD. The minimum inhibition concentration (MIC) was determined at the concentration that corresponds to 10% or less of OD of the control (without any gallium compound).

In another data set the test system is Lactobacillus casei. Described as above. Format: cell-based. Conditions: pH 5.9, 18 hours. As for the experimental part:
as §1

The next data set deals with Pseudomonas aeruginosa. Described as above. Conditions: pH 5.9, 18 hours. Format: cell-based. As for the experimental part: as §1
A further data set relates to Streptococcus mutans. Described as above. Format: cell-based. Conditions: pH 5.9, 18 hours. As for the experimental part: as §1
The test system of data set [2] is Streptococcus pneuomoniae. The description is as above. Conditions: pH 5.9, 18 hours. Type of data set: cell-based. As for the experimental part: as §1
The test system of another data set is Streptococcus sobrinus. Described as above. The settings on record: pH 5.9, 18 hours. Format: cell-based. As for the experimental part: as §1
The nature of data set [3]: Stability of aqueous gallium complex solutions with pH. Format: physicochemical. Conditions: solution of 2×10^−3 M.
Data set [4] in a line: Gallium release from composite discs, spectrophotometric method. The settings on record: 15% chelate in the monomer; deionized water pH=7.0; 4 days (FIG. 13).
[5] abbreviates: 37° C., 5% CO2, OD at 600 nm, read-out: Midpoint concentration (IC50).
[6] abbreviates: 10% or less of OD of the control.

In the case of `[Ga+3].[Ga+3].[O-2].[O-2].[O-2]` [Ga2O3, gallium oxide], the “solubility in water (words)” value in data set [1] is reported as “insoluble in water”.

On to `[F][Ga]([F])[F]` [GaF3, gallium trifluoride], for which, in [1], the solubility in water is 15.8 µM and the “solubility in water (words)” value is “sparingly soluble”.

For the molecule `[F][Ga-2]([F])([F])([F])[F].[Na+].[Na+]` [Na2GaF5], the IC50 in the data set with Actinomyces naeslundii (setting [5]) is 1.88 mM; in the data set on Lactobacillus casei (setting [5]) it was > 5 mM; with Pseudomonas aeruginosa (setting [5]) it was > 1.88 mM; with Streptococcus mutans (setting [5]), 1.25 mM; in data set [2] (setting [5]), 1.88 mM; in the data set with Streptococcus sobrinus (setting [5]), 1.25 mM. Further, the “Minimum Inhibition Concentration (MIC)” value in the data set on Actinomyces naeslundii (setting [6]) was 2500 µM; in the data set with Lactobacillus casei (setting [6]), >10^−2M; with Pseudomonas aeruginosa (setting [6]), 50 µM; in the data set with Streptococcus mutans (setting [6]) it was 2500 µM; in data set [2] (setting [6]) it was 5000 µM; with Streptococcus sobrinus (setting [6]) it was 5000 µM. In addition, the “pH up to which the solution is stable” value in data set [3] is ≤ 5.9.

For the molecule `C=C(C)C(=O)OCCOc1ccc(C(C)(CCC(=O)NCCCCC(C(=O)[O-])N(CC(=O)[O-])CC(=O)O)c2ccc(OCCOC(=O)C(=C)C)cc2)cc1.F.[F-].[Ga+3]` (stereo not shown) [ternary gallium fluoride chelate, monogallium(III) mono(2,2′-((5-(4,4-bis(4-(2-(methacryloyloxy)ethoxy)phenyl)pentanamido)-1-carboxylatopentyl)azanediyl)diacetate) monofluoride hydrofluoride], the “amount of gallium ion released compared with those without the chelate” value in data set [4] is listed as “nearly double”.

As for `[Ga+3].[OH-].[OH-].[OH-]` [Ga(OH)3], the “solubility in water (words)” value in data set [1] is “sparingly soluble; also recorded: low solubility in water”. For the same molecule, in [1] (in water), the “Ksp=[Ga^3+][OH^−]^3” value is listed as 3.28×10^−36.
